Experimental data taken from US9867375B2, “Methods of pest control in soybean” (Syngenta Participations AG, priority 2012, dated 2018).

The compounds below were run on Euschistus heros (assay: Euschistus heros (Neotropical brown stink bug) contact/feeding activity on sprayed soybean plants). Conditions: Euschistus heros, 120 h, 50 ppm; sprayed 2 week old soybean plants, 10 N-2 nymphs; evaluation 5 days after infestation on mortality and growth effects.
Assay type: in vivo
Experimental: Euschistus heros (Neotropical brown stink bug) (contact/feeding activity) 2 week old soybean plants are sprayed in a turn table spray chamber with the diluted spray solutions. After drying, 2 soybean seeds are added and plants are infested with 10 N-2 nymphs of the neotropical brown stink bug Euschistus heros in plastic test boxes. Boxes are incubated in a climate chamber at 25° C. and 60% RH. Evaluation is done 5 days after infestation on mortality and growth effects.

| SMILES | pest or weed control at 50 ppm |
| --- | --- |
| CC(C)C(=O)NCc1ccc(C2=NOC(c3cc(Cl)cc(Cl)c3)(C(F)(F)F)C2)cc1Cl (stereo not drawn) [Compound A2] | ≥ 50% |
| CC(=O)NCc1ccc(N2CCC(c3cc(Cl)cc(Cl)c3)(C(F)(F)F)C2)cc1C (stereo not drawn) [Compound A4, N-{4-[3-(3,5-dichlorophenyl)-3-(trifluoromethyl)pyrrolidin1-yl]-2-methyl-benzyl)acetamide] | ≥ 50% |
| CC(=O)NCc1ccc(C2=NCC(c3cc(Cl)cc(Cl)c3)(C(F)(F)F)C2)cc1Br (stereo not drawn) [Compound A5, N-{2-bromo-4-[4-(3,5-dichlorophenyl)-4-trifluoromethyl-4,5-dihydro-3H-pyrrol-2yl]-benzyl}acetamide] | ≥ 50% |

Same assay, conditions: low application rates; sprayed soybean plants, N-2 nymphs

| SMILES | control at low application rates |
| --- | --- |
| N#Cc1cc(C2=NCC(c3cc(Cl)c(Cl)c(Cl)c3)(C(F)(F)F)C2)ccc1-n1cncn1 (stereo not drawn) [Compound C2, 2-(1,2,4-triazol-1-yl)-5-[3-(3,4,5-trichlorophenyl)-3-(trifluoromethyl)-2,4-dihydropyrrol-5-yl]benzonitrile] | excellent control |
| N#Cc1cc(C2=NOC(c3cc(Cl)c(F)c(Cl)c3)(C(F)(F)F)C2)ccc1-n1cncn1 (stereo not drawn) [Compound C3] | excellent control |
| N#Cc1cnn(-c2ccc(C3=NOC(c4cc(Cl)c(F)c(Cl)c4)(C(F)(F)F)C3)cc2C#N)c1 (stereo not drawn) [Compound D1] | excellent control |
